From publication PMC9676923, “Characterization of relaxin 3 and its receptors in chicken: Evidence for relaxin 3 acting as a novel pituitary hormone” (Frontiers in Physiology, 2022)
“Also recorded” adds a separate entry of the source.

How the values were obtained:
[1] = tested on: CART; details: chicken pituitary, ref Cai et al., 2015, Mo et al., 2019; cited from earlier work
Description: Till present, a total of five genes (LHB, FSHB, GRP, CART, and RLN3) have been detected to be abundantly expressed in chicken pituitary gonadotrope cells ([Mo et al., 2017]; [Zhang et al., 2021]). Although these genes concentrate on the same cell cluster, these genes vary in sexual distribution patterns, cell co-localization profiles, and the hypothalamus regulation networks. For example, RLN3 and GRP show an abundance in female gonadotrope cells while LHB, FSHB, and CART show a higher expression in male pituitary cells. In addition, all cells expressing RLN3 overlap with the cells expressing ...

[2] = tested on: cRLN3 mRNA expression in cultured chicken pituitary cells; assay: cRLN3 mRNA expression (qPCR) in cultured pituitary cells of 4-week-old female chicks; type: cell-based
Experimental: (§3) The primers (10 μM), dNTP (10 mM), easy Taq buffer, easy Taq DNA polymerase (TransGen Biotech), Eva Green (Biotium), MilliQ-H2O, and templates were mixed in a total volume of 20 μl. Then the reaction mix was conducted on the CFX96 Real-Time PCR Detection System (Bio-Rad). The amplification conditions included an initial denaturation for 10 min at 94°C followed by 20 s of denaturation at 94°C, 15 s annealing at 60°C, and 30 s extension at 72°C for 40 cycles.
To explore the regulatory effects of GnRH/CRH/E2/P4 on cRLN3, the anterior pituitaries isolated from 4-week-old female chicks were sliced and digested by 0.25% trypsin at 37°C for 20 min. The dispersed pituitary cells were cultured at a density of 5 × 10^5 cells/well in Medium 199 supplemented with 15% fetal bovine serum. Then, the medium was replaced with a serum-free M199 medium and the cells were incubated with GnRH (1–100 nM), CRH (0.1–10 nM), E2 (100 nM), and P4 (100 nM) for different duration times (4 h/24 h). […] The total RNA was then extracted from cultured pituitary cells and the expression of RLN3 and β-actin mRNA was assayed by qPCR.
(§4) The relative mRNA levels of target genes were first calculated as the ratios to that of β-actin and then expressed as fold change (or the percentage) compared to their respective controls (chosen tissues). The data were analyzed by Student’s t-test (between two groups), or by one-way ANOVA followed by the Dunnett test in GraphPad Prism 7 (GraphPad Software, San Diego, CA).

[3] = tested on: cRXFP1; assay: pGL3-CRE-luciferase reporter (cAMP/PKA), HEK293 cells expressing cRXFP1; type: cell-based, chicken
Experimental: According to our previously established methods ([Liu et al., 2019]; [Jiang et al., 2022]), two cell-based luciferase reporter systems (pGL3-CRE-luciferase and pGL3-NFAT-RE-luciferase) were used to verify whether cRLN3cm is biologically active and capable of activating cRXFP1 and cRXFP3. In brief, HEK293 cells transiently expressing each receptor (cRXFP1 and cRXFP3) were treated with 30 μl serum-free medium containing cRLN3cm or pcDNAcm (0.001–10 μl) for 6 h, and the receptor-activated cAMP/PKA pathways and calcium mobilization were then monitored by pGL3-CRE-luciferase and pGL3-NFAT-RE-luciferase reporter systems, respectively. HEK293 cells expressing empty pcDNA3.1 (+) were used as a negative control.
To compare the functional difference between chicken RLN3 and human RLN3, recombinant human RLN3 (rhRLN3, 10^–12 to 10^–7 M, 6 h) was used to treat HEK293 cells expressing cRXFP1 or cRXFP3, respectively, and its potency in activating cRXFP1 and cRXFP3 was also evaluated.
To verify whether chicken RLN3 can activate RXFP1 or RXFP3, a cRLN3-conditioned medium (cRLN3cm, 0.001–10 μl) was used to treat HEK293 cells expressing cRXFP1/cRXFP3. Receptor activation was examined by pGL3-CRE-luciferase and pGL3-NFAT-RE-luciferase reporter systems established in our previous studies ([Liu et al., 2019]).

[4] = tested on: cRLN3 mRNA expression in cultured chicken pituitary cells; details: dihydrotestosterone 100 nM, 4 h/24 h; male chick pituitary cells; qPCR
Experimental: as §3
To explore the regulatory effects of GnRH/CRH/E2/P4 on cRLN3, the anterior pituitaries isolated from 4-week-old female chicks were sliced and digested by 0.25% trypsin at 37°C for 20 min. The dispersed pituitary cells were cultured at a density of 5 × 10^5 cells/well in Medium 199 supplemented with 15% fetal bovine serum. Then, the medium was replaced with a serum-free M199 medium and the cells were incubated with GnRH (1–100 nM), CRH (0.1–10 nM), E2 (100 nM), and P4 (100 nM) for different duration times (4 h/24 h). […]
as §4

[5] = tested on: RXFP1; details: ref Sudo et al., 2003, cited from earlier work
Description: As the typical member of the insulin superfamily, the RLNs bind their receptors to play their physiological roles. In mammals, RLN1 and RLN2 bind the relaxin family peptide 1 receptor (RXFP1) for downstream signaling ([Bathgate et al., 2013]). […] However, only a dose-dependent increase in luciferase activity in HEK293 cells expressing chicken cRXFP1 is detected in the present study which is different from the report in mammalian species that RXFP1 is capable of coupling to Gs and other G-proteins (Gi/o), thus showing a biphasic pattern o ...

[6] = tested on: RXFP3; details: ref Liu et al., 2005; cited from earlier work
Description: Although cRLN3 is able to activate both cRXFP1 and cRXFP3, the potency of cRLN3 for cRXFP1 activation is at least 10-fold higher than that for cRXFP3. […] The present study supports that chicken RLN3 is a functional analog of rhRLN3. However, our finding contrasts with that of mammalian species. […] The difference may result from ligand–receptor interaction mo ...

[7] = tested on: E2 production during follicular development; details: female teleost fish; ref Wilson et al., 2009; Yang et al., 2020; cited from earlier work
Description: Supporting evidence also comes from the high expression of its cognate receptor (cRXFP1) in chicken tissues. Similar to rats, RXFP1 is highly expressed in the uterus involving uterine contractions ([Hsu et al., 2002]; [Vodstrcil et al., 2010]). In addition, cRXFP1 is also detected to be expressed highly in a wide range of female tissues (infundibulum, isthmus, uterus, and vagina), th ...

[8] = tested on: RXFP3; details: human RXFP3, Gαi/o coupled, ref Liu et al., 2003b, 2005, Bathgate et al., 2006, van der Westhuizen et al., 2007; cited from earlier work
Description: (§1) As the typical member of the insulin superfamily, the RLNs bind their receptors to play their physiological roles. In mammals, RLN1 and RLN2 bind the relaxin family peptide 1 receptor (RXFP1) for downstream signaling ([Bathgate et al., 2013]). As their cognate receptor, RXFP1, which is also called the leucine-rich repeat-containing G-protein-coupled receptor 7 (LGR7), is capable of coupling to multiple G-proteins, thus triggering the pathways including cAMP accumulation ([Halls et al., 2006]; [Halls et al., 2007]; [Halls et al., 2009]), ERK1/2 phosphorylation, NO production, and other signalin ...

[9] = intraventricular (icv) injection, ref McGowan et al., 2008, 2014; cited from earlier work
Description: (§2) Since GnRH is pulsed secreted and negatively regulated by CRH ([Ciechanowska et al., 2010]), the expression of RLN3 mRNA may be regulated by CRH. As the key player in the hypothalam ...

[10] = tested on: rat hypothalamic explants; details: ref McGowan et al., 2008, 2014; cited from earlier work
Description: as §2

[11] = target: chicken relaxin family peptide 1 receptor (cRXFP1) (chicken)
[12] = tested on: relaxin family peptide 2 receptor (RXFP2); details: ref Kumagai et al., 2002; Hsu et al., 2003; cited from earlier work
Description: as §1

[13] = target: chicken relaxin family peptide 3 receptor (cRXFP3) (chicken)
[14] = target: chicken relaxin family peptide 1 receptor (cRXFP1) (chicken); remark: listed apart in the source

Molecule: Chicken gonadotropin-releasing hormone (QHWSYGLQPG; Gonadoliberin-1; UniProt P37042 24-33, looked up) [GnRH, synthesized using solid-phase Fmoc chemistry (GL Biochem, Shanghai, China)]
- regulation of CART, GnRH compared with CRH [1]: equal potency
- effect of GnRH on cRLN3 mRNA expression, 4 h ([2]; GnRH 10 nM, 4 h, qPCR, fold vs control): slightly increase the expression of cRLN3 mRNA
- effect of GnRH on cRLN3 mRNA expression, 24 h ([2]; GnRH 10 nM, 24 h, qPCR, fold vs control): not able to further regulate the expression of cRLN3 mRNA
- effect of GnRH on cRLN3 mRNA expression, dose response ([2]; GnRH 1, 10, 100 nM, 4 h, qPCR, N = 4): could increase the expression level of cRLN3 mRNA in a dose-dependent manner; also recorded: could only weakly stimulate the mRNA expression of cRLN3

Molecule: chicken relaxin 3 [cRLN3]
- potency on cRXFP1 compared with cRXFP3 (in words) ([3]; HEK293 cells expressing cRXFP1 or cRXFP3): cRXFP1 showed a higher binding potency with cRLN3 than cRXFP3
- potency in activating cRXFP1 relative to cRXFP3 ([3]; fold more potent on cRXFP1 than on cRXFP3, cRLN3cm, HEK293 cells): at least 10 fold

Molecule: corticotropin-releasing hormone [CRH]
- regulation of CART, GnRH compared with CRH [1]: equal potency
- effect of CRH on cRLN3 mRNA expression, time course ([2]; CRH 10 nM, 4 h and 24 h, qPCR, fold vs control): significantly increase the expression of cRLN3 mRNA in a time-dependent manner
- effect of CRH on cRLN3 mRNA expression, dose response ([2]; CRH 0.1, 1, 10 nM, 24 h, qPCR, N = 4): could increase the expression level of cRLN3 mRNA in a dose-dependent manner; also recorded: potently stimulates the expression of cRLN3 in a dose- and time-dependent manner
- stimulation of cRLN3 mRNA expression, CRH compared with GnRH ([2]; CRH 0.1–10 nM, 24 h vs GnRH 1–100 nM, 4 h): the stimulation effect of CRH was higher than that of GnRH

Molecule: C[C@]12CCC(=O)C[C@@H]1CC[C@@H]1[C@@H]2CC[C@]2(C)[C@@H](O)CC[C@@H]12 [DHT, dihydrotestosterone]
- effect of DHT on cRLN3 mRNA expression [4]: could not affect the expression of cRLN3 mRNA

Molecule: CC(=O)[C@H]1CC[C@H]2[C@@H]3CCC4=CC(=O)CC[C@]4(C)[C@H]3CC[C@]12C [P4, progesterone]
- effect of P4 on cRLN3 mRNA expression ([2]; progesterone 100 nM, 4 h/24 h, qPCR): could not affect the expression of cRLN3 mRNA

Molecule: C[C@]12CC[C@@H]3c4ccc(O)cc4CC[C@H]3[C@@H]1CC[C@@H]2O [E2, 17β-estradiol]
- effect of E2 on cRLN3 mRNA expression, 4 h ([2]; 17β-estradiol 100 nM, 4 h, qPCR): could increase the expression level of cRLN3 mRNA; also recorded: found to increase the expression of cRLN3
- effect of E2 on cRLN3 mRNA expression, 24 h ([2]; 17β-estradiol 100 nM, 24 h, qPCR): could not regulate the mRNA expression of cRLN3

Molecule: relaxin 3 [RLN3]
- RXFP1 activation, cAMP production ([5]; HEK293T cells): able to activate RXFP1 inducing a dose-dependent increase in cAMP production
- RXFP1 activation in mammals ([5]; mammals, Halls et al., 2006): RXFP1 can be activated by RLN3
- potency on RXFP3 compared with RXFP1 in mammals [6]: a higher potency for RXFP3 activation than for RXFP1
- production of E2 during follicular development [7]: promotes the production of E2 during follicular development
- RXFP3, cAMP level on ligand binding [8]: cAMP level decrease upon ligand binding
- plasma LH, ACTH and corticosterone levels [9]: can also increase plasma LH, ACTH, and corticosterone levels
- release of GnRH and CRH from hypothalamic explants [10]: can stimulate rat hypothalamic explants to release GnRH and CRH

Molecule: chicken relaxin 3 (cRLN3), in conditioned medium of HEK293 cells transfected with the cRLN3 expression plasmid (ligand)
- potency of cRLN3cm in activating cRXFP1 relative to cRXFP3, pGL3-CRE-luciferase reporter in HEK293 cells [11]: > 10 fold

Molecule: insulin-like peptide 3 [INSL3]
- RXFP2 downstream signaling [12]: cAMP level increase and thymidine incorporation

Molecule: recombinant human relaxin 3 (rhRLN3) (ligand)
- EC50 of inhibition of forskolin-stimulated luciferase activity, cAMP/PKA pathway (pGL3-CRE-luciferase reporter) in HEK293 cells expressing cRXFP3; rhRLN3 10^-12 to 10^-7 M, 6 h [13]: 41.5 nM
- EC50 of activation, Ca2+ pathway (pGL3-NFAT-RE-luciferase reporter) in HEK293 cells expressing cRXFP1; rhRLN3 10^-12 to 10^-7 M, 6 h [14]: 21.1 nM
- EC50 of activation, cAMP/PKA pathway (pGL3-CRE-luciferase reporter) in HEK293 cells expressing cRXFP1; rhRLN3 10^-12 to 10^-7 M, 6 h [14]: 2.68 nM
